Values belong to the compound of their own block, whether it stands above or below them.
How the values were obtained:
Assay type in all cases: physicochemical
[1] = Hyperpolarization then cycloaddition with cyclooctyne 2: enhancement and lifetime of products; conditions: methanol-d4; for signal enhancement over thermal spectra, product anti-phase (singlet) signal: tetrazine scalar order hyperpolarized at 0.3 mT, then 2 injected
Description: For the hyperpolarization of the cycloaddition products 3a and 3b, a solution of tetrazine (1a or 1b, respectively), pyridine, and Ir catalyst in methanol-d4 was first hyperpolarized at 0.4 μT or 0.3 mT, depending on which spin order was studied (solution preparation and hyperpolarization procedure described above in Example 4). After hyperpolarization, the para-H2 gas flow was stopped and the pressure was released through the exhaust outlet, after which the injection valve (shown in FIG. 5) was quickly opened to inject a solution of cyclooctyne 2 (4.5 mM) in methanol-d4 (200 μL) (equiv of tetrazine:2=1.0:1.5). Injection was completed in less than 1 second, and the sample was shaken for 3 seconds to reach complete reaction, visually evidenced by the color change from pink (i.e., the color of the tetrazine) to transparent. The sample was then manually transferred to an 8.5 T spectrometer for product signal read out.
Upon the cycloaddition reaction, a noticeable difference in chemical shift is observed on both nitrogen atoms (i.e., N1 and N2 in 1a vs. N1′ and N2′ in 3a). […] Hyperpolarized 3a and ^15N2 are observed. FIG. 3, panels c, e, and g show representative T1 or Ts decay measurements for product 3a magnetization, 3a singlet order, and 3b singlet order, respectively. […] FIG. 3, panels d, f, and h show lifetime measurement data, exponential fit of the data, and calculated T1 or Ts values for product 3a magnetization, 3a singlet order, and 3b singlet order, respectively. In the hyperpolarization-cycloaddition experiments, para-hydrogen was bubbled into a solution of ^15N4-1,2,4,5-tetrazine 1a or 1b (1.5 mM), pyridine (1.0 mM), and Ir(COD)(IMes)Cl (0.15 mM) in methanol-d4 (400 uL), then a solution of 2 (1.5 equivalents) in methanol-d4 (200 μL) was added. The sample was held at 0.3 mT for a variable amount of time before transport to the magnet for detection.

[2] = Injection and detection with small tip angle (product relaxation lifetime); conditions: 15° tip angle, 6 consecutive spectra in the magnet, 1.6 s delay
Protocol: In addition to using a 90° pulse-acquire sequence for detection after injection, experiments using small tip angles (15° or 11.25°) were conducted to acquire a series of detection within a short time window (˜10 s), and to use that information to determine the relaxation lifetime of different spin orders of the hyperpolarized product.
FIG. 9, panel a: magnetization of ^15N-enriched tetrazine 1a is first hyperpolarized at 0.4 μT, then a solution of 2 in methanol-d4 is injected (as described in Example 4). Then, the sample is manually transferred as quickly as possible into the magnet, using 15° tip angle to acquire 6 spectra consecutively, with a 1.6 s delay between each acquisition. […] Panel b: singlet spin order of ^15N-enriched tetrazine 1a is first hyperpolarized at 0.3 mT, then a solution of 2 in methanol-d4 is injected (as described in Example 4). Then, the sample is manually transferred as quickly as possible into the magnet, using 11.25° tip angle to acquire 6 spectra consecutively, with a 1.6 s delay between each acquisition. […] Panels c-e: relaxation constant measurements of the hyperpolarized product magnetization, hyperpolarized ^15N2 gas, and hyperpolarized product singlet. The product magnetization has T1 lifetime of ˜6.9 s.

[3] = Hyperpolarization in aqueous media (3:1 methanol-d4:D2O, about 50° C.)
Protocol: One important aspect of our bioorthogonal reaction-promoted hyperpolarization approach is the ability to exploit this scheme using an aqueous solvent, which is critical for many biological reactions and would widely broaden the applicability of this strategy. […] The best results were achieved using a 3:1 methanol-d4:D2O mixture and by elevating the temperature to about 50° C. using a water bath while bubbling para-H2 through the solution.
A solution of 2 was prepared in the same 3:1 methanol-d4:D2O mixed solvent and was injected after the hyperpolarization was established for the precursor tetrazine.

[4] = SABRE-SHEATH hyperpolarization of 15N4-1,2,4,5-tetrazines in methanol-d4
Protocol: Unless otherwise described, a solution of ^15N-enriched tetrazine (1a or 1b, 1.5 mM), pyridine (1.0 mM), and Ir(IMes)(COD) Cl (0.15 mM) in methanol-d4 (400 μL) was prepared. Note: IMes=1,3-bis(2,4,6-trimethylphenyl) imidazol-2-ylidene; COD=1,5-cyclooctadiene.
The Ir catalyst was pre-activated by bubbling para-H2 through a solution of tetrazine, pyridine, and Ir catalyst (sample preparation described above) for 30 minutes. Following pre-activation, the tetrazine was hyperpolarized, either magnetization or singlet order.
To hyperpolarize magnetization, the solution was placed inside the magnetic shield, with the magnetic field adjusted to 0.4 μT (using a solenoid of 430 mm with 205 turns and a voltage of 7.5 V across 11.4 kOhms). After 3 minutes' bubbling of para-H2, the gas flow was stopped and the sample was manually transferred from the low field to an 8.5 T spectrometer for signal read out as quickly as possible. This manual transfer takes ˜8 seconds, and a 90° pulse-acquire sequence was used for read out.
To hyperpolarize singlet, the sample was placed at a magnetic field of 0.3 mT and para-H2 was bubbled through the solution for 3 minutes. As described in the above procedure, the sample was then manually transferred to an 8.5 T spectrometer as quickly as possible and detected using a 90° pulse-acquire sequence.
Depending on the magnetic field at which hyperpolarization was induced, in-phase signal (magnetization) or anti-phase signal (singlet) was observed. Enhancement values (ε) and polarization levels (p) were obtained by comparison of the hyperpolarized spectrum to a thermal reference spectrum of the respective ^15N4-1,2,4,5-tetrazine. […] Measurement at 0.3 mT. Sample as a solution of ^15N4-1,2,4,5-tetrazine (1.5 mM), pyridine (1.0 mM), and Ir(COD)(IMes)Cl (0.15 mM) in methanol-d4 (400 uL).
Hyperpolarization of 1a and 1b was examined by standard SABRE-SHEATH procedure, as reported by Theis et al. (“Direct and cost-efficient hyperpolarization of long-lived nuclear spin states on universal ^15N2-diazirine molecular tags,” Sci. Adv. 2, e1501438 (2016)). Two different hyperpolarized states for ^15N4-1,2,4,5-tetrazine 1a were observed, depending upon the chosen magnetic field at which the para-hydrogen gas is applied to the sample (FIG. 2b). At very low magnetic fields (˜0.4 μT), the ^15N spin pairs of the tetrazine are hyperpolarized in the triplet states and display in-phase signal upon detection at 8.45 T (i.e., magnetization is hyperpolarized). Conversely, at a relatively broad range of slightly elevated magnetic fields (˜0.2 mT<B<˜50 mT), anti-phase signals are observed after a 90° pulse. In this case, scalar order is hyperpolarized in the tetrazine spin pairs, associated with singlet states on ^15N-spin pairs; upon transfer to high magnetic field for detection, this scalar order is transformed into anti-aligned magnetization (I⋅S is adiabatically converted to Iz-Sz).

[5] = Concentration dependence of tetrazine hyperpolarization (enhancement and lifetime); conditions: for T1 / Ts: decay at 0.3 mT
Protocol: Using serial dilution, solutions of tetrazine 1a, pyridine, and Ir catalyst in methanol-d4 (400 μL) were prepared at different concentrations, but in the same ratio of each component: • (i) 1a (7.5 mM), pyridine (5.0 mM), and Ir(IMES)(COD)Cl (0.75 mM) • (ii) 1a (3.8 mM), pyridine (2.5 mM), and Ir(IMES)(COD)Cl (0.38 mM) • (iii) 1a (1.5 mM), pyridine (1.0 mM), and Ir(IMES)(COD)Cl (0.15 mM) (i.e., default concentrations of solution used in all other experiments) • (iv) 1a (0.60 mM), pyridine (0.40 mM), and Ir(IMES)(COD)Cl (0.060 mM)
For the rest of this section, samples are referred to by the concentration of tetrazine 1a comprising the solution. As described above, either magnetization or singlet tetrazine hyperpolarization was developed following pre-activation of the catalyst. After bubbling para-H^2 through the sample, the sample was transferred to 0.3 mT for a variable period of time. Following this delay, the sample was transported to the magnet and the spectrum was immediately recorded with a 90° pulse-acquire sequence. Triplet magnetization signal was deconvoluted from singlet signal, and fitted to a single exponential decay. Results are shown below in Table 1 and graphically in FIGS. 6a and 6b.

[6] = Dilution effect on hyperpolarization (injection of pure methanol-d4); conditions: 200 μL methanol-d4 injected; singlet order at 0.3 mT
Protocol: To observe the effect of simple dilution on hyperpolarization, pure methanol-d4 was injected into a solution of hyperpolarized tetrazine to obtain a diluted hyperpolarized signal as follows: tetrazine 1a was hyperpolarized singlet order at 0.3 mT and the spectra were acquired (as described in Example 4). The sample was again bubbled with para-H2 for 3 minutes at 0.3 mT, then the pressure was released and the injection valve was opened, after which 200 μL of methanol-d4 was quickly injected and the sample was manually transferred into the magnet to read out the signal (detailed in Example 4, but with the key difference: pure methanol-d4 used instead of a solution of 2 in methanol-d4). […] The signal observed was about half of the signal before addition.

[7] = Kinetic characterization of tetrazine/cyclooctyne reaction; conditions: 1.5 mM tetrazine, 1.5 equivalent of 2, CD3OD
Protocol: Emulating hyperpolarization conditions (below), a 1.5 mM solution of 1c (1 equivalent) in CD3OD (400 μL) was added to an NMR tube. To this solution, a 4.5 mM solution of 2 (1.5 equivalent) in CD3OD (200 μL) was added and the NMR tube was shaken vigorously. Immediately upon addition, the color of the solution changed from pink (due to the pink color of the tetrazine 1c) to colorless. As soon as the pink color completely dissipated (<2 seconds), the sample was placed into the NMR and a spectrum was acquired. The upper trace represents 1c and the lower trace represents 3c, i.e., the product of the cycloaddition reaction.

[8] = at 0.3 mT, 1.5 mM in methanol-d4
[9] = tetrazine concentration 0.60 mM
[10] = tetrazine concentration 3.75 mM
[11] = 3:1 methanol-d4:D2O, about 50° C.

lifetime Ts of product ([1]; held at 0.3 mT): 13 ± 2 s
magnetization lifetime T1 of product ([1]; held at 0.3 mT): 13 ± 4 s
enhancement over thermal spectra, hyperpolarized product magnetization ([1]; tetrazine magnetization hyperpolarized at 0.4 μT, then 2 added at 0.3 mT): 540 fold
signal enhancement over thermal spectra, product anti-phase (singlet) signal [1]: 140 fold
product magnetization T1 lifetime [2]: ~6.9 s
hyperpolarized signal from cycloaddition product ([3]; 3:1 CD3OD:D2O, 50° C.): detected the hyperpolarized signal
SMILES: OC[C@H]1[C@H]2CCc3c(c[15n][15n]c3-c3ccccc3)CC[C@@H]12 (racemic) [3a, (1-Phenyl-6,6a,7,7a,8,9-hexahydro-5H-cyclopropa[5,6]cycloocta[1,2-d]pyridazin-7-yl-2,3-15N2)methanol]

lifetime Ts of product ([1]; held at 0.3 mT): 24 ± 6 s
signal enhancement over thermal spectra, product anti-phase (singlet) signal [1]: 180 fold
SMILES: [2H]c1[15n][15n]c(-c2ccccc2)c2c1CC[C@H]1[C@@H](CO)[C@H]1CC2 [3b, (1-Phenyl-6,6a,7,7a,8,9-hexahydro-5H-cyclopropa[5,6]cycloocta[1,2-d]pyridazin-7-yl-4-d-2,3-^15N2)methanol]

Continued, compound first:

SMILES: c1ccc(-c2[15n][15n]c[15n][15n]2)cc1 [1a, 3-Phenyl-1,2,4,5-tetrazine-1,2,4,5-^15N4]
lifetime of scalar order relative to magnetization ([4]; at 0.3 mT): about 2 times
magnetization relaxation constant T1 [4, 8]: 1.4 ± 0.1 min
relaxation constant of the scalar order of the 15N spin pairs, Ts [4, 8]: 2.7 ± 0.3 min
signal enhancement over 8.45 T thermal measurements ([4]; tetrazine 1.5 mM, pyridine 1.0 mM, Ir(COD)(IMes)Cl 0.15 mM in methanol-d4): up to 3,000 fold
Singlet enhancement at 0 s delay (normalized to 1.5 mM singlet, %) [5, 9]: 96%
Z-Magnetization enhancement at 0 s delay (normalized to 1.5 mM Z-magnetization, %) [5, 9]: 130%
T1 [5, 9]: 74 s
Ts [5, 9]: 357 s
Singlet enhancement at 0 s delay (normalized to 1.5 mM singlet, %) ([5]; tetrazine concentration 1.5 mM): 100%
Z-Magnetization enhancement at 0 s delay (normalized to 1.5 mM Z-magnetization, %) ([5]; tetrazine concentration 1.5 mM): 100%
T1 ([5]; tetrazine concentration 1.5 mM): 91 s
Ts ([5]; tetrazine concentration 1.5 mM): 137 s
Singlet enhancement at 0 s delay (normalized to 1.5 mM singlet, %) [5, 10]: 77%
Z-Magnetization enhancement at 0 s delay (normalized to 1.5 mM Z-magnetization, %) [5, 10]: 86%
T1 [5, 10]: 72 s
Ts [5, 10]: 58 s
Singlet enhancement at 0 s delay (normalized to 1.5 mM singlet, %) ([5]; tetrazine concentration 7.5 mM): 56%
Z-Magnetization enhancement at 0 s delay (normalized to 1.5 mM Z-magnetization, %) ([5]; tetrazine concentration 7.5 mM): 66%
T1 ([5]; tetrazine concentration 7.5 mM): 47 s
Ts ([5]; tetrazine concentration 7.5 mM): 48 s
enhancement compared to that in neat methanol-d4 [3, 11]: about 30%
signal enhancement [3, 11]: ~900 fold
hyperpolarized singlet signal after dilution relative to signal before addition [6]: about half

SMILES: [2H]c1[15n][15n]c(-c2ccccc2)[15n][15n]1 [1b, 3-Phenyl-1,2,4,5-tetrazine-6-d-1,2,4,5-^15N4]
relaxation constant of the scalar order of the 15N spin pairs, Ts [4, 8]: 2.1 ± 0.7 min
enhancement of hyperpolarized scalar order ([4]; singlet mode, 1.5 mM in methanol-d4): 2900 fold
hyperpolarized magnetization (T1) obtainable ([4]; μT fields): not possible to create the hyperpolarized magnetization

SMILES: c1ccc(-c2nncnn2)cc1 [1c, 3-Phenyl-1,2,4,5-tetrazine]
time until pink color completely dissipated on reaction with 2 [7]: < 2 s
